Measurements published in patent publication US20080004290A1, “Anti-Cancer Agents” (THE UNIVERSITY OF QUEENSLAND, priority 2003, published 2008).
Where two headings read alike, the source gives them in different places.

How the values were obtained:
Type in all cases: cell-based, human
[1] = test system: NFF, neonatal foreskin fibroblasts; test: Cell survival assay (clonogenic survival, SRB), normal cells
How it was run: (§1)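 Cells (5×10^3/well, RPMI 1640 with 10% FCS) treated 24 h with compound at 0.01-10 μg/mL, then washed and grown 72 h drug-free at 37 °C, 5% CO2. Survival read by SRB staining after methylated-spirit fixation, absorbance 564 nm.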

MM96L melanoma cells = test: Cell survival assay (clonogenic survival, SRB)
How it was run: as §1

DO4 melanoma cells = test: Cell survival assay (SRB); conditions: Table 10, standard deviations in parentheses, read-out: Cell line IC50 (μM) DO4
Protocol: (§2) Cell Lines and Culture Medium. All cell lines used in this study have been described previously (Parsons et al., 1986; Todaro et al., 1980; Glenn et al., 2004). All cell lines were cultured in 10% heat-inactivated foetal calf serum (CSL, Australia) in RPMI 1640 medium supplemented with 100 U/mL penicillin, 100 μg/mL streptomycin, and 3 mM HEPES at 5% CO2, 99% humidity at 37° C. Primary human fibroblasts were obtained from neonatal foreskins and cultured in the above medium. Routine mycoplasma tests were performed using Hoechst stain^i and were always negative.
(§3) Cell Survival Assay. Cells were plated into 96-well microtitre plates at 5×10^3 cells/well, and allowed to adhere overnight. Test compounds were added to culture medium at the indicated concentrations, and plates incubated in the above conditions for 24 hours. Following this incubation period, compounds and media were removed, and replaced with fresh culture medium. Cells were then grown for a further 72 hours before assay using sulforhodamine B (SRB; Sigma, St. Louis, Mo.) as previously described. Briefly, the culture medium was removed from the 96-well microtitre plates and the plates washed twice with phosphate buffered saline (PBS), before the cells were fixed with methylated spirits for 15 minutes. The plates were then rinsed with tap water and the fixed cells stained with 50 μL/well of SRB solution (0.4% sulforhodamine B (w/v) in 1% (v/v) acetic acid) over a period of 1 hour. The SRB solution was then removed from the wells and the plates rapidly washed two times with 1% (v/v) acetic acid. Protein bound dye was then solubilised with the addition of 100 μL of 10 mM unbuffered Tris, and incubated for 15 min at 25° C. Plates were then read at 564 nm on a VERSA max tunable microplate reader (Molecular Devices, Sunnyvale, Calif.).
(§4) For comparison their results are also shown for MM96L and NFF cell lines.

[2] = test system: CI-80-13S ovarian cancer cells; test: Cell survival assay (SRB); conditions: Table 10, standard deviations in parentheses, read-out: Cell line IC50 (μM) C18013S
Protocol: as §2, §3, §4

[3] = test system: MCF-7 breast cancer cells; test: Cell survival assay (SRB); conditions: Table 10, standard deviations in parentheses, read-out: Cell line IC50 (μM) MCF7
Protocol: as §2, §3, §4

[4] = test system: DU145 prostate cancer cells; test: Cell survival assay (SRB); conditions: Table 10, standard deviations in parentheses, read-out: Cell line IC50 (μM) DU145
Protocol: as §2, §3, §4

JAM ovarian cancer cells = test: Cell survival assay (SRB); conditions: Table 10, standard deviations in parentheses, read-out: Cell line IC50 (μM) JAM
Protocol: as §2, §3, §4

SkMel28 melanoma cells = test: Cell survival assay (SRB); conditions: Table 10, standard deviations in parentheses, read-out: Cell line IC50 (μM) SkMel
Protocol: as §2, §3, §4

histone deacetylase = test: Histone hyperacetylation (histone H4, Triton-acetic acid-urea gel) in MM96L cells; conditions: (figure legends: 5 μg/mL, 8 hours)
Protocol: FIG. 1. Acetylation of Histones. […] Lane 1: untreated. Lane 2: compound of example 22 Lane 3: compound of example 40. Lane 4: TSA. Non-acetylated (A), mono-acetylated (B), di-acetylated (C), tri-acetylated (D) and tetra-acetylated (E) histone H4 are indicated.
FIG. 2. Acetylation of histones MM96L cells were treated with 5 μg/ml of various compound for 8 hr, before harvest and analysis of histone H4 acetylation by Triton-acetic acid-urea gel as previously described (Saito et al., 1991; Qiu et al., 1999). Lane 1: untreated: lane 2: Compound of example 73; lane 3: Compound of example 40; lane 4: TSA. Non-acetylated (A), mono-acetylated (B), di-acetylated (C), tri-acetylated (D) and tetra-acetylated (E) histone H4 are indicated.
Histone Hyperacetylation.

[5] = Table 5, 24 hours with compound, further growth, SRB, read-out: IC50 NFF
[6] = Table 10, standard deviations in parentheses, read-out: Cell line IC50 (μM) NFF
[7] = Table 5, 24 hours with compound, further growth, SRB, read-out: IC50 MM96L
[8] = Table 5, Selectivity Index = IC50 (NFF)/IC50 (MM96L)
[9] = Table 10, standard deviations in parentheses, read-out: Cell line IC50 (μM) MM96L
[10] = Homo sapiens, Fibroblast, 24 h, Table 6, 24 hours with compound, further growth, SRB, read-out: IC50 (μM) NFF
[11] = Homo sapiens, Fibroblast, Table 10, standard deviations in parentheses, read-out: Cell line IC50 (μM) NFF
[12] = Homo sapiens, MM96L, 24 h, Table 6, 24 hours with compound, further growth, SRB, read-out: IC50 (μM) MM96L
[13] = Homo sapiens, MM96L, Table 10, standard deviations in parentheses, read-out: Cell line IC50 (μM) MM96L
[14] = Table 6, IC50 (NFF)/IC50 (MM96L)

| SMILES | IC50 [1, 5] [µM] | IC50 [1, 6] [µM] | IC50 (MM96L melanoma cells; [7]) [µM] | Selectivity (MM96L melanoma cells; [8]) | IC50 (MM96L melanoma cells; [9]) [µM] | IC50 (DO4 melanoma cells) [µM] | IC50 [2] [µM] | IC50 [3] [µM] | IC50 [4] [µM] | IC50 (JAM ovarian cancer cells) [µM] | IC50 (SkMel28 melanoma cells) [µM] | IC50 [1, 10] [µM] | IC50 [1, 11] [µM] | IC50 (MM96L melanoma cells; [12]) [µM] | IC50 (MM96L melanoma cells; [13]) [µM] | Selectivity (MM96L melanoma cells; [14]) | IC50 (DO4 melanoma cells; Homo sapiens, DO4) [µM] | IC50 ([2]; Homo sapiens, C180-13S) [µM] | IC50 ([3]; Homo sapiens, MCF7) [µM] | IC50 ([4]; Homo sapiens, DU-145) [µM] | other results |
| --- | --- | --- | --- | --- | --- | --- | --- | --- | --- | --- | --- | --- | --- | --- | --- | --- | --- | --- | --- | --- | --- |
| CN(C)c1ccc(C(=O)N[C@@H](CSCCCC(=O)NO)C(=O)NCc2ccccc2)cc1 [Example 22] | 0.35 ± 0.07 | 0.35 | 0.14 ± 0.09 | 2.5 | 0.14 | 2 | 0.7 | 0.59 | 0.61 | 1.24 | 3 |  |  |  |  |  |  |  |  |  | acetylation state of histone H4 (histone deacetylase): hyperacetylation of H4 |
| O=C(CCCSC[C@H](NC(=O)c1cc2ccccc2[nH]1)C(=O)NCc1ccccc1)NO [Example 40] | 0.8 ± 0.2 | 0.8 | 0.13 ± 0.09 | 6.2 | 0.13 | 1.3 | 0.4 | 0.84 | 0.4 | 0.75 | 1.7 |  |  |  |  |  |  |  |  |  | acetylation state of histone H4 (histone deacetylase): hyperacetylation of H4 |
| O=C(CCCSC[C@H](NC(=O)C(O)(c1ccccc1)c1ccccc1)C(=O)NCc1ccccc1)NO [Example 44] | 9.3 ± 0.7 | 0.8 | 1.8 ± 0.2 | 5.2 | 0.2 | 2.1 | 0.6 | 0.7 | 1.7 | 1.8 | 2.5 |  |  |  |  |  |  |  |  |  |  |
| CN(C)c1ccc(NC(=O)[C@H](CSCCCC(=O)NO)NC(=O)c2ccc(N(C)C)cc2)cc1 [Example 59] |  |  |  |  |  |  |  |  |  |  |  | 0.6 ± 0.1 | 0.6 | 0.1 ± 0.1 | 0.1 | 6.0 | 1.05 | 0.39 | 0.39 | 0.33 | IC50 (MM96L melanoma cells; Homo sapiens, MM96L, most preferred compounds, exemplary examples, read-out: potency of IC50 against the MM96 melanoma cells): ≤ 0.5 µM; IC50 (JAM ovarian cancer cells; Homo sapiens): 0.43 µM; IC50 (SkMel28 melanoma cells; Homo sapiens, SK-MEL-28): 1.09 µM |
| CN(C)c1ccc(C(=O)N[C@@H](CSCCCC(=O)NO)C(=O)Nc2ccc(-c3ccccc3)cc2)cc1 [Example 61] |  |  |  |  |  |  |  |  |  |  |  | 0.32 ± 0.05 | 0.32 | 0.17 ± 0.05 | 0.17 | 1.9 | 0.83 | 0.38 | 0.48 | 0.37 | IC50 (JAM ovarian cancer cells; Homo sapiens): 0.6 µM; IC50 (SkMel28 melanoma cells; Homo sapiens, SK-MEL-28): 1.11 µM |
| CN(C)c1ccc(C(=O)N[C@@H](CSCCCC(=O)NO)C(=O)N[C@H]2c3ccccc3C[C@H]2O)cc1 [Example 70] |  | 8.2 |  |  | 0.9 | 7.12 | 2.5 | 3.3 | 3.76 | 7.22 | 6.14 |  |  |  |  | 9.1 |  |  |  |  | IC50 ([1]; Table 6, 24 hours with compound, further growth, SRB, read-out: IC50 (μM) NFF): 8.2 ± 0.8 µM; IC50 (MM96L melanoma cells; Table 6, 24 hours with compound, further growth, SRB, read-out: IC50 (μM) MM96L): 0.9 ± 0.05 µM |
| CN(C)c1ccc(C(=O)N[C@@H](CSCCCC(=O)NO)C(=O)Nc2cccnc2)cc1 [Example 78] |  |  |  |  |  |  |  |  |  |  |  | 11 ± 1 | 3.6 | 2.1 ± 0.1 | 0.51 | 5.6 | 2.48 | 1.36 | 0.97 | 1.06 | IC50 (JAM ovarian cancer cells; Homo sapiens): 2.3 µM; IC50 (SkMel28 melanoma cells; Homo sapiens, SK-MEL-28): 2.33 µM |
